Assay results as given in article PMC7696433, “Carbohydrate Hydrolase-Inhibitory Activity of Juice-Based Phenolic Extracts in Correlation to Their Anthocyanin/Copigment Profile” (Molecules, 2020).

Assays:
[1] = target: T1, porcine pancreatic α-amylase (Sus scrofa, UniProt P00690); assay: In vitro α-amylase inhibition study (CNPG3 substrate, absorbance 405 nm); format: biochemical; details: 2 mM of single substance; mean ± SD, n = 3
T1 construct: α-amylase from porcine pancreas; purchased Sigma-Aldrich (Taufkirchen, Germany); host or cells: porcine pancreas
T1 sequence (P00690 16-511): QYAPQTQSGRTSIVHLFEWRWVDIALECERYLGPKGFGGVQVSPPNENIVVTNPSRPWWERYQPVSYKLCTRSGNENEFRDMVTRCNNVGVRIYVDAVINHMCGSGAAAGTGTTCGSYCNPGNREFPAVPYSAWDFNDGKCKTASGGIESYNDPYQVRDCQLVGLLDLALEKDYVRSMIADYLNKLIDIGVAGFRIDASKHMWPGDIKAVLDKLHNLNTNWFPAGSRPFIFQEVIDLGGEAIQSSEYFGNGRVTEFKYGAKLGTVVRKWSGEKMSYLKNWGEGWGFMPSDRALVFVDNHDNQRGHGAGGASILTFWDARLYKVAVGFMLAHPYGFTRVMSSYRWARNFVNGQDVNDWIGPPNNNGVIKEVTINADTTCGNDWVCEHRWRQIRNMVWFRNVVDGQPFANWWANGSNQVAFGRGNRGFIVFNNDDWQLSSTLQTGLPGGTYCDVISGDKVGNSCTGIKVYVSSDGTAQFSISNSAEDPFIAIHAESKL
Procedure: The α-amylase inhibition assay was based on a previously described spectrophotometric method. […] Briefly, 20 μL aliquots of the sample (in five different concentrations), the positive control, or the negative control were each mixed with 70 μL of 40 mM phosphate buffered saline (PBS) at pH 6.9 containing 30 U/mL of porcine pancreatic α-amylase and incubated in a 96-well microplate at 37 °C for 10 min. After pre-incubation, 100 μL of substrate solution (40 mM PBS with 4 mM 2-chloro-4-nitrophenyl-α-D-maltotrioside) was added, and the resulting mixtures were incubated at 37 °C for 8 min. Their absorbance was then measured at λ 405 nm using a microplate reader (Biotek, Bad Friedrichshall, Germany). Each sample was measured in triplicate.

[2] = test system: α-glucosidase from Saccharomyces cerevisiae; assay: In vitro α-glucosidase inhibition study (pNPG substrate, absorbance 405 nm); format: biochemical; details: 2 mM of single substance; mean ± SD, n = 3
Procedure: The α-glucosidase inhibition assay used 4-nitrophenyl-α-D-glucopyranoside as substrate. 20 μL aliquots of the sample (in five different concentrations) or negative and positive control solutions were each mixed with 70 μL enzyme solution (1 U/mL) in 0.1 M PBS (pH 6.8). After incubation at 25 °C for 10 min, 100 μL of 4 mM pNPG solution in PBS was added and incubated in a 96-well microplate for 5 min at 25 °C. The absorbance was measured at λ 405 nm using a microplate reader (Biotek, Bad Friedrichshall, Germany). Each sample was measured in triplicate.

Row | Structure (SMILES) | Inhibition (%) of α-amylase [1] [%] | Inhibition (%) of α-glucosidase [2] [%]
1 | COc1cc(-c2[o+]c3cc(O)cc(O)c3cc2O[C@@H]2O[C@H](CO)[C@@H](O)[C@H](O)[C@H]2O)cc(O)c1O [petunidin glucoside, Petunidin 3-glucoside] | 7.7 ± 2.5 | 
2 | Oc1cc(O)c2cc(O[C@@H]3OC[C@H](O)[C@H](O)[C@H]3O)c(-c3ccc(O)c(O)c3)[o+]c2c1 [cyanidin 3-arabinoside] | 18.7 ± 1.2 | 
3 | O=C(/C=C/c1ccc(O)c(O)c1)O[C@H]1[C@H](O)C[C@](O)(C(=O)O)C[C@H]1O [4-caffeoylquinic acid] | 16.0 ± 3.1 | 4.5 ± 3.3
4 | O=C(/C=C/c1ccc(O)c(O)c1)O[C@@H]1C[C@](O)(C(=O)O)C[C@@H](O)[C@H]1O [3-caffeoylquinic acid] | 13.8 ± 1.4 | 3.6 ± 2.2
5 | O=C1OC[C@H]2OC(O)[C@H](O)[C@@H](O)[C@@H]2OC(=O)c2cc(O)c(O)c(O)c2-c2c(O)c(O)c3oc(=O)c4c(c(O)c(O)c5oc(=O)c2c3c54)-c2c1cc(O)c(O)c2O (mixture of isomers) [punicalin] | 3.8 ± 0.2 | 8.7 ± 0.6
6 | O=C1O[C@H]2[C@@H]3OC(=O)c4cc(O)c(O)c(O)c4-c4c(O)c(O)c5oc(=O)c6c(c(O)c(O)c7oc(=O)c4c5c76)-c4c(cc(O)c(O)c4O)C(=O)OC[C@H]3OC(O)[C@@H]2OC(=O)c2cc(O)c(O)c(O)c2-c2c1cc(O)c(O)c2O (mixture of isomers) [punicalagin] | 4.8 ± 2.6 | 11.5 ± 1.0
7 | O=c1c(O[C@@H]2O[C@H](CO)[C@H](O)[C@H](O)[C@H]2O)c(-c2ccc(O)c(O)c2)oc2cc(O)cc(O)c12 [quercetin 3-galactoside] | 28.0 ± 1.0 | 8.3 ± 1.2
8 | O=c1oc2c(O)c(O)cc3c(=O)oc4c(O)c(O)cc1c4c23 [ellagic acid] | 11.0 ± 0.8 | 6.0 ± 0.8
9 | OC[C@H]1O[C@@H](Oc2cc3c(O[C@@H]4O[C@H](CO)[C@@H](O)[C@H](O)[C@H]4O)cc(O)cc3[o+]c2-c2ccc(O)c(O)c2)[C@H](O)[C@@H](O)[C@@H]1O [cyanidin 3,5-diglucoside] |  | 4.9 ± 5.2
10 | O=C(/C=C/c1ccc(O)c(O)c1)O[C@@H](C(=O)O)[C@@H](O)C(=O)O [caftaric acid] | 11.5 ± 2.5 | 4.6 ± 2.2
11 | Oc1cc(O)c2cc(O)c(-c3ccc(O)c(O)c3)[o+]c2c1 [Cyanidin] |  | 35.5 ± 2.4
12 | C[C@@H]1O[C@@H](OC[C@H]2O[C@@H](Oc3cc4c(O)cc(O)cc4[o+]c3-c3ccc(O)c(O)c3)[C@H](O)[C@@H](O)[C@@H]2O)[C@H](O)[C@H](O)[C@H]1O [cyanidin 3-rutinoside] | 7.6 ± 1.8 | 
13 | OC[C@H]1O[C@@H](Oc2cc3c(O)cc(O)cc3[o+]c2-c2cc(O)c(O)c(O)c2)[C@H](O)[C@@H](O)[C@@H]1O [delphinidin glucoside, Delphinidin 3-glucoside] | 12.7 ± 1.9 | 
14 | OC[C@H]1O[C@@H](Oc2cc3c(O)cc(O)cc3[o+]c2-c2ccc(O)c(O)c2)[C@H](O)[C@@H](O)[C@@H]1O [cyanidin 3-glucoside] |  | 7.8 ± 5.5
15 | O=C(/C=C/c1ccc(O)c(O)c1)O[C@@H]1C[C@](O)(C(=O)O)C[C@@H](O)[C@H]1O [chlorogenic acid] | 20.3 ± 2.3 | 1.6 ± 3.1
16 | O=c1c(O[C@@H]2O[C@H](CO)[C@@H](O)[C@H](O)[C@H]2O)c(-c2ccc(O)cc2)oc2cc(O)cc(O)c12 [kaempferol 3-glucoside] | 30.3 ± 2.2 | 13.2 ± 0.7
17 | COc1cc(-c2[o+]c3cc(O)cc(O)c3cc2O[C@@H]2O[C@H](CO)[C@@H](O)[C@H](O)[C@H]2O)ccc1O [peonidin glucoside, Peonidin 3-glucoside] | 11.3 ± 0.5 | 
18 | COc1cc(-c2[o+]c3cc(O)cc(O)c3cc2O[C@@H]2O[C@H](CO)[C@@H](O)[C@H](O)[C@H]2O)cc(OC)c1O [malvidin glucoside, Malvidin 3-glucoside] | 9.1 ± 5.6 | 
